Experimental data published in patent US20150335637A1, “COMPOSITIONS AND METHODS FOR TREATING CUTANEOUS T CELL LYMPHOMA” (THE TRUSTEES OF THE UNIVERSITY OF PENNSYLVANIA, priority 2013, published 2015).

System: cutaneous T-cell lymphoma (CTCL) lesions
Assay: Phase I open label trial of resiquimod gel, clinical response of skin lesions
Assay type: in vivo, human
Experimental: The final trial design calls for a total of 16-20 patients, with the first half cohort treated topically with 0.06% gel and the second half cohort treated topically with 0.03% gel.
According to the study design, treatment of only four to five target lesions is permitted for eight weeks; followed by four weeks of rest and another eight weeks of therapy. Final evaluation is conducted after four weeks off of therapy.

## CCOCc1nc2c(N)nc3ccccc3c2n1CC(C)(C)O [resiquimod, 4-amino-α,α-dimethyl-2-ethoxymethyl-1H-imidazo[4,5-c]quinolin-1-ethanol]
Patient refractory to previous treatments, before application vs end of week 8
  skin lesions of one patient (FIG. 1): clears the treated lesions and induces resolution of distant lesions
Refractory early stage CTCL patients
  clinical response rates for treated and untreated lesions: high clinical response rates of both treated as well as distant, non-treated lesions
